Like-named read-outs stand apart in the source and are kept apart here. *1 amine or outer side, *2 acyl side, *3 side chain or, on linkers, in order; H or OH if unused. Where a SMILES comes first, the peptide text is derived from it. Side-chain parts run from the residue outwards. [ ]: non-standard residue; d: D form. The star is where a group is joined. αMePhe(2-F) = C[C@](N)(Cc1ccccc1F)C(=O)O; γGlu = O=C(O)[C@H](CCC(=O)[*:2])N[*:1]; C14 diacid = O=C(O)CCCCCCCCCCCCC(=O)*; αMeY = C[C@](N)(Cc1ccc(O)cc1)C(=O)O; 4Pal = N[C@@H](Cc1ccncc1)C(=O)O; αMeL = CC(C)C[C@](C)(N)C(=O)O; Orn = NCCC[C@H](N)C(=O)O; AEEA = NCCOCCOCC(=O)O; Aib = CC(C)(N)C(=O)O
Tests used:
hGCGR = target: T1, hGCGR (Homo sapiens, UniProt P47871); experiment: Functional cAMP formation (HTRF) in HEK-293 clonal cells expressing hGCGR, 0.1% bovine casein, without or with 1.0% human serum albumin; assay type: cell-based; conditions: read-out: hGCGR EC50, nM (SEM, n)
T1 construct: expressed in transfected cells
T1 sequence (P47871 26-477): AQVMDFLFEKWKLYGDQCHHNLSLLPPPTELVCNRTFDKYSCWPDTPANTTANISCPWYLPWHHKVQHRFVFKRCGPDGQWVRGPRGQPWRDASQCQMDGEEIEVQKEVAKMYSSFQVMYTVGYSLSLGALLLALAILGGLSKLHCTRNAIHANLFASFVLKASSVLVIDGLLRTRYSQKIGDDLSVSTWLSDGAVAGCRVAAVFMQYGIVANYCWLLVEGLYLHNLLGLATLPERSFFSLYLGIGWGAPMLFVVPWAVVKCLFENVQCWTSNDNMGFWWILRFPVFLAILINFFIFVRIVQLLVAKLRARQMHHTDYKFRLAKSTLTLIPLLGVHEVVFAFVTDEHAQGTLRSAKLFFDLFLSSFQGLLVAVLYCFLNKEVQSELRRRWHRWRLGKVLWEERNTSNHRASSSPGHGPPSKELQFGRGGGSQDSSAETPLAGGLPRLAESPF
How it was run: (§1)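 Readings of the HTRF 665/620 nm ratio, which falls as cAMP rises, were converted to nM cAMP using a standard curve after 30 min peptide exposure at 37° C.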

hGLP-1R = hGLP-1R (Homo sapiens, UniProt P43220); experiment: Functional cAMP formation (HTRF) in HEK-293 clonal cells expressing hGLP-1R, 0.1% bovine casein, without or with 1.0% human serum albumin; assay type: cell-based; set-up: expressed in transfected cells; conditions: 37° C.; for Emax: HEK293, cAMP, percent of maximal response to GLP-1(7-36)NH2, read-out: hGLP-1R Emax, % ± SEM; for EC50: geometric mean, read-out: hGLP-1R EC50, nM (SEM, n)
Chain of hGLP-1R (P43220 24-463): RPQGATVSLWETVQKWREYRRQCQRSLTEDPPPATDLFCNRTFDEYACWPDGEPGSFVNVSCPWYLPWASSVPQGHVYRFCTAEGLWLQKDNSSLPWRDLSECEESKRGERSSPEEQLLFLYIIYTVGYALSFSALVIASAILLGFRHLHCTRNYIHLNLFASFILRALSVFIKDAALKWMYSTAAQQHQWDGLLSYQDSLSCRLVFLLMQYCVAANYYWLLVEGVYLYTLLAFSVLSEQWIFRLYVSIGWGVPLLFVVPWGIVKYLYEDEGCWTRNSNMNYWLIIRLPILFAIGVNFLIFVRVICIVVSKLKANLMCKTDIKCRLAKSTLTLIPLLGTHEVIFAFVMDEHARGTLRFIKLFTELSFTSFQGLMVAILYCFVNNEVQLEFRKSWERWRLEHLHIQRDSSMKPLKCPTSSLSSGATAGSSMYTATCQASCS
How it was run: as §1

[1] = target: T2, human GLP-1 receptor (hGLP-1R) (Homo sapiens, UniProt P43220); experiment: [125I]-GLP-1 binding, SPA with membranes of HEK293 cells expressing hGLP-1R; conditions: human GLP-1R; geometric mean (SEM, n); read-out: Binding Affinity Ki, nM (SEM, n) hGLP-1R
T2 construct: expressed in transfected cells; crude membranes
T2 sequence (P43220 24-463): as above

hGIPR = target: T3, hGIPR (Homo sapiens, UniProt P48546); experiment: Functional cAMP formation (HTRF) in HEK-293 clonal cells expressing hGIPR, 0.1% bovine casein, without or with 1.0% human serum albumin; assay type: cell-based; conditions: 37° C.; for Emax: read-out: hGIPR Emax, % ± SEM; for EC50: read-out: hGIPR EC50, nM (SEM, n)
T3 construct: expressed in transfected cells
T3 sequence (P48546 22-466): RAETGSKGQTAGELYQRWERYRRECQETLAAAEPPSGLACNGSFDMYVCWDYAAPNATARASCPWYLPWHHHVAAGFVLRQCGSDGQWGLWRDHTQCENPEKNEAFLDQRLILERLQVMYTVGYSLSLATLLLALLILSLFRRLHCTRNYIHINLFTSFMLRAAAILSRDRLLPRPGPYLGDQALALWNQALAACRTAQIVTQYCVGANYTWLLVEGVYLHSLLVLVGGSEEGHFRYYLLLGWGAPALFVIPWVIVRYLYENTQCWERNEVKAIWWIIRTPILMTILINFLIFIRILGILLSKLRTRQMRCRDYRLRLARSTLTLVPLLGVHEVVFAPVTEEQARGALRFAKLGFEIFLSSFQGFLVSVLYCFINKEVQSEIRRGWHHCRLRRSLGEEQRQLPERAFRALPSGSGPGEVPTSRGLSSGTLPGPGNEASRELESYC
How it was run: as §1

[2] = 0.1% bovine casein and 1.0% human serum albumin

Structure (SMILES) | EC50 (hGCGR; cAMP, 37° C., 0.1% bovine casein (no human serum albumin), geometric mean) | EC50 (hGCGR; cAMP, 37° C., 0.1% bovine casein and 1.0% human serum albumin, geometric mean (SEM, n)) | Emax (hGLP-1R; [2]) | Emax (hGLP-1R; 0.1% bovine casein, arithmetic mean) | EC50 (hGLP-1R; cAMP, 0.1% bovine casein (no human serum albumin)) | Ki [1] | Emax (hGIPR; HEK293, cAMP, 0.1% bovine casein and 1.0% human serum albumin, percent of maximal response to GIP(1-42)NH2) | Emax (hGIPR; HEK293, cAMP, 0.1% bovine casein, percent of maximal response to GIP(1-42)NH2, arithmetic mean) | EC50 (hGIPR; cAMP, 0.1% bovine casein (no human serum albumin), geometric mean) | EC50 (hGIPR; cAMP, 0.1% bovine casein and 1.0% human serum albumin, geometric mean (SEM, n)) | EC50 (hGCGR; 0.1% bovine casein and 1.0% human serum albumin, 37° C., geometric mean) | EC50 (hGCGR; cAMP, incubated at 37° C., 0.1% bovine casein (no human serum albumin), geometric mean) | EC50 (hGLP-1R; [2]) | EC50 (hGIPR; 0.1% bovine casein and 1.0% human serum albumin, geometric mean) | Emax (hGIPR; HEK293, 0.1% bovine casein and 1.0% human serum albumin, percent of maximal response to GIP(1-42)NH2) | Emax (hGIPR; HEK293, percent of maximal response to GIP(1-42)NH2, 0.1% bovine casein, arithmetic mean)
CC[C@H](C)[C@H](NC(=O)[C@H](CC(C)C)NC(=O)[C@](C)(Cc1ccc(O)cc1)NC(=O)[C@H](CCCCNC(=O)COCCOCCNC(=O)COCCOCCNC(=O)CC[C@H](NC(=O)CCCCCCCCCCCCC(=O)O)C(=O)O)NC(=O)[C@@H](NC(=O)[C@H](Cc1ccccc1)NC(=O)[C@H](CCCN)NC(=O)C(C)(C)NC(=O)[C@H](CCC(N)=O)NC(=O)[C@H](C)NC(=O)[C@H](CCC(N)=O)NC(=O)[C@H](CCCN)NC(=O)[C@H](CC(=O)O)NC(=O)[C@H](CC(C)C)NC(=O)[C@](C)(CC(C)C)NC(=O)CNC(=O)C(C)(C)NC(=O)[C@H](Cc1ccncc1)NC(=O)[C@H](CC(=O)O)NC(=O)[C@H](CO)NC(=O)[C@@H](NC(=O)[C@](C)(Cc1ccccc1F)NC(=O)[C@@H](NC(=O)CNC(=O)[C@H](CCC(=O)O)NC(=O)C(C)(C)NC(=O)[C@@H](N)Cc1ccc(O)cc1)[C@@H](C)O)[C@@H](C)O)[C@@H](C)CC)C(=O)N[C@@H](CCCCNC(=O)COCCOCCNC(=O)COCCOCCNC(=O)CC[C@H](NC(=O)CCCCCCCCCCCCC(=O)O)C(=O)O)C(=O)NCC(=O)NCC(=O)N1CCC[C@H]1C(=O)N[C@@H](CO)C(=O)N[C@@H](CO)C(=O)NCC(=O)N[C@@H](C)C(=O)N1CCC[C@H]1C(=O)N1CCC[C@H]1C(=O)N1CCC[C@H]1C(=O)N[C@@H](CO)C(N)=O [Example 441] (H-Y[Aib]EGT[αMePhe(2-F)]TSD[4Pal][Aib]G[αMeL]LD[Orn]QAQ[Aib][Orn]FIK([AEEA-AEEA-γGlu-C14 diacid])[αMeY]LIK([AEEA-AEEA-γGlu-C14 diacid])GGPSSGAPPPS-NH2) | > 9950 nM | > 9950 nM | 111% | 110% | 0.134 nM | 0.386 nM | 83.8% | 97.2% | 0.0174 nM | 1.38 nM | – | – | – | – | – | –
CC[C@H](C)[C@H](NC(=O)[C@H](CC(C)C)NC(=O)[C@](C)(Cc1ccc(O)cc1)NC(=O)[C@@H](CCC(=O)O)NC(=O)[C@@H](NC(=O)[C@H](Cc1ccccc1)NC(=O)[C@H](CCC(=O)O)NC(=O)C(C)(C)NC(=O)[C@H](CCC(N)=O)NC(=O)[C@H](C)NC(=O)[C@H](CCCCNC(=O)COCCOCCNC(=O)COCCOCCNC(=O)[C@@H](N)CCCCNC(=O)CCCCCCCCCCCCC(=O)O)NC(=O)[C@H](CCCN)NC(=O)[C@H](CC(=O)O)NC(=O)[C@H](CC(C)C)NC(=O)[C@](C)(CC(C)C)NC(=O)[C@@H](NC(=O)[C@H](CO)NC(=O)[C@H](Cc1ccncc1)NC(=O)[C@H](CC(=O)O)NC(=O)[C@H](CO)NC(=O)[C@@H](NC(=O)[C@](C)(Cc1ccccc1F)NC(=O)[C@@H](NC(=O)CNC(=O)[C@H](CCC(=O)O)NC(=O)C(C)(C)NC(=O)[C@@H](N)Cc1ccc(O)cc1)[C@@H](C)O)[C@@H](C)O)[C@@H](C)CC)[C@@H](C)CC)C(=O)N[C@@H](CCC(=O)O)C(=O)NCC(=O)NCC(=O)N[C@@H](CCCCNC(=O)COCCOCCNC(=O)COCCOCCNC(=O)[C@@H](N)CCCCNC(=O)CCCCCCCCCCCCC(=O)O)C(=O)N[C@@H](CO)C(=O)N[C@@H](CO)C(=O)NCC(=O)N[C@@H](C)C(=O)N1CCC[C@H]1C(=O)N1CCC[C@H]1C(=O)N1CCC[C@H]1C(=O)N[C@@H](CO)C(N)=O [Example 33] | – | – | – | – | – | 1.34 nM | – | – | – | – | > 9950 nM | > 9950 nM | 4.35 nM | 0.0941 nM | 92 ± 1.02% | 97.6 ± 2.45%
